Results from patent publication US10519152B2, “Compounds and their use in treating cancer” (AstraZeneca AB, priority 2017, dated 2019).

What follows are compounds tested against T1, recombinant human Estrogen Receptor alpha ligand binding domain, residues 307-554 (ER alpha-LBD (GST)) (Homo sapiens, UniProt P03372) (assay: ERα binding assay (LanthaScreen TR-FRET competition)). Conditions: TR-FRET competition with Fluormone ES2 tracer, 4 hours at room temperature; single experiment or average of two or more.
T1 construct: made in house
T1 sequence (P03372 307-554): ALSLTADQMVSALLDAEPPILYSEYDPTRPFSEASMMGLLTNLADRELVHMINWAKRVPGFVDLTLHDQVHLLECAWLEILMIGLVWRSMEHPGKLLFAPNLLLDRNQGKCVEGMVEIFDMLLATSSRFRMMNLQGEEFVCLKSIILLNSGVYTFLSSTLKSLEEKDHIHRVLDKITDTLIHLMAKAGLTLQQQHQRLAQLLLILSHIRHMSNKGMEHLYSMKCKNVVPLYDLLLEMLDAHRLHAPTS

Structure (SMILES)	IC50
Cc1ncsc1-c1ccc([C@H](C)NC(=O)[C@@H]2C[C@@H](O)CN2C(=O)[C@@H](NC(=O)COCCOCCOCCOc2cc(F)c([C@@H]3c4[nH]c5ccccc5c4C[C@@H](C)N3CC(C)(C)F)c(F)c2)C(C)(C)C)cc1 [Example 3, (2S,4R)-1-((S)-2-(tert-Butyl)-14-(3,5-difluoro-4-((1R,3R)-2-(2-fluoro-2-methylpropyl)-3-methyl-2,3,4,9-tetrahydro-1H-pyrido[3,4-b]indol-1-yl)phenoxy)-4-oxo-6,9,12-trioxa-3-azatetradecanoyl)-4-hydroxy-N—((S)-1-(4-(4-methylthiazol-5-yl)phenyl)ethyl)pyrrolidine-2-carboxamide]	0.8 nM
Cc1ncsc1-c1ccc(CNC(=O)[C@@H]2C[C@@H](O)CN2C(=O)[C@@H](NC(=O)COCc2ccc(OCCOc3cc(F)c([C@@H]4c5[nH]c6ccccc6c5C[C@@H](C)N4CC(C)(C)F)c(F)c3)cc2)C(C)(C)C)cc1 [Example 4, (2S,4R)-1-((S)-2-(2-((4-(2-(3,5-Difluoro-4-((1R,3R)-2-(2-fluoro-2-methylpropyl)-3-methyl-2,3,4,9-tetrahydro-1H-pyrido[3,4-b]indol-1-yl)phenoxy)ethoxy)benzyl)oxy)acetamido)-3,3-dimethylbutanoyl)-4-hydroxy-N-(4-(4-methylthiazol-5-yl)benzyl)pyrrolidine-2-carboxamide]	0.8 nM
Cc1ncsc1-c1ccc(CNC(=O)[C@@H]2C[C@@H](O)CN2C(=O)[C@@H](NC(=O)COCCOCCOCCOCC(=O)Nc2ccc([C@@H]3c4[nH]c5ccccc5c4C[C@@H](C)N3CC(C)(C)F)cc2)C(C)(C)C)cc1 [Example 55, N^1-(4-((1R,3R)-2-(2-fluoro-2-methylpropyl)-3-methyl-2,3,4,9-tetrahydro-1H-pyrido[3,4-b]indol-1-yl)phenyl)-N^14—((S)-1-((2S,4R)-4-hydroxy-2-((4-(4-methylthiazol-5-yl)benzyl)carbamoyl)pyrrolidin-1-yl)-3,3-dimethyl-1-oxobutan-2-yl)-3,6,9,12-tetraoxatetradecanediamide, Trifluoroacetic Acid]	12 nM
Cc1ncsc1-c1ccc(CNC(=O)[C@@H]2C[C@@H](O)CN2C(=O)[C@@H](NC(=O)COCCOCCOCCOCCOCC(=O)Nc2ccc([C@@H]3c4[nH]c5ccccc5c4C[C@@H](C)N3CC(C)(C)F)cc2)C(C)(C)C)cc1 [Example 56, N^1-(4-((1R,3R)-2-(2-fluoro-2-methylpropyl)-3-methyl-2,3,4,9-tetrahydro-1H-pyrido[3,4-b]indol-1-yl)phenyl)-N^17—((S)-1-((2S,4R)-4-hydroxy-2-((4-(4-methylthiazol-5-yl)benzyl)carbamoyl)pyrrolidin-1-yl)-3,3-dimethyl-1-oxobutan-2-yl)-3,6,9,12,15-pentaoxaheptadecanediamide, Trifluoroacetic Acid]	20 nM
Cc1ncsc1-c1ccc(CNC(=O)[C@@H]2C[C@@H](O)CN2C(=O)[C@@H](NC(=O)COCCOCCOCC(=O)Nc2ccc([C@@H]3c4[nH]c5ccccc5c4C[C@@H](C)N3CC(C)(C)F)cc2)C(C)(C)C)cc1 [Example 57, (2S,4R)-1-((S)-2-(tert-butyl)-14-((4-((1R,3R)-2-(2-fluoro-2-methylpropyl)-3-methyl-2,3,4,9-tetrahydro-1H-pyrido[3,4-b]indol-1-yl)phenyl)amino)-4,14-dioxo-6,9,12-trioxa-3-azatetradecanoyl)-4-hydroxy-N-(4-(4-methylthiazol-5-yl)benzyl)pyrrolidine-2-carboxamide, Trifluoroacetic Acid]	8.8 nM
